Results on five compounds are retold here after ChEMBL document CHEMBL1201862, “PubChem BioAssay data set” (2004).

Test systems include HL-60; OVCAR-5; SNB-19; KM12; SF-539; NCI-H23; Malme-3M; SK-MEL-5; K562; HCC 2998; OVCAR-3; UACC-62; M19-MEL; M14; HOP-92; HCT-15; RPMI-8226; NCI-H522; DU-145; MDA-MB-231.
What all share (assay): NCI anticancer screen, dose series, 48 h

Molecules are shown by their SMILES.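 Cells were grown in 96-well plates and exposed to each compound for 48 hours at five concentrations; endpoints were interpolated linearly between bracketing concentrations, or set to the highest concentration if not reached. The concentration for 50% growth inhibition is given as GI50.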 Activity calls are given as the source filed them. No stated cut-off is given here; in the data, active = GI50 up to about 1.1 µM and inactive = higher.

In the case of `O=[N+]([O-])c1ccc(C2=Nn3c(nnc3-c3ccccc3)SC2)o1`, the GI50 in the test with HL-60 was 15.3 µM (inactive); with OVCAR-5, 29.6 µM (inactive); with SNB-19 it was 85.5 µM (inactive); with KM12, 18 µM (inactive); in the test with SF-539, 18.8 µM (inactive); in the test on NCI-H23, 20.6 µM (inactive). Moreover, the GI50 is 24.1 µM (inactive) with Malme-3M; 17.7 µM (inactive) in the test on SK-MEL-5; 20.4 µM (inactive) in the test with K562; 18.9 µM (inactive) with HCC 2998; 17.3 µM (inactive) in the test on OVCAR-3; 19.5 µM (inactive) in the test with UACC-62. The GI50 in the test with M19-MEL is 18.5 µM (inactive); in the test on M14, 17.6 µM (inactive); in the test with HOP-92, 13.2 µM (inactive); in the test on HCT-15 it was 16.1 µM; in the test with RPMI-8226, 5.81 µM (inactive).
On to `N=C(N)NS(=O)(=O)c1ccc(NC(=O)c2cccc3cc4ccccc4nc23)cc1`, for which the GI50 in the test with OVCAR-5 is > 100 µM (inactive); in the test with SNB-19, 9.79 µM (inactive); in the test with KM12 it was 30.8 µM (inactive); in the test on SF-539, 25.5 µM (inactive); in the test with NCI-H23, > 100 µM (inactive); in the test on Malme-3M, > 100 µM (inactive). The GI50 is 13.5 µM (inactive) in the test with NCI-H522; > 100 µM (inactive) with SK-MEL-5; 53 µM (inactive) in the test with K562; > 100 µM (inactive) with OVCAR-3; > 100 µM (inactive) in the test with UACC-62; > 100 µM (inactive) in the test with M19-MEL. The GI50 in the test with M14 was > 100 µM (inactive); in the test on HCT-15 it was above 100 µM; in the test with RPMI-8226, > 100 µM (inactive).
Turning to `Cc1cc2nc3c(=O)[nH]c(=O)nc-3n(CC(O)C(O)C(O)CO)c2cc1N` (stereo unspecified), the GI50 in the test on HL-60, with SNB-19, in the test on KM12, in the test on SF-539, with NCI-H23 and in the test on SK-MEL-5 was > 100 µM (inactive) each time. The GI50 with K562, in the test on HCC 2998, in the test on OVCAR-3, in the test with UACC-62, with M19-MEL and in the test on M14 was > 100 µM (inactive) each time. The GI50 in the test with HOP-92 was > 100 µM (inactive); in the test on HCT-15, above 100 µM; in the test on RPMI-8226, > 100 µM (inactive).
Turning to `O=C(O)[C@H](NS(=O)(=O)c1ccc(F)cc1)c1ccccc1`, the GI50 with OVCAR-5, with SNB-19, in the test with SF-539, in the test with NCI-H23, in the test with Malme-3M and with NCI-H522 was > 100 µM (inactive) throughout. For the same compound, the GI50 in the test with SK-MEL-5, in the test on K562, in the test with HCC 2998, with OVCAR-3, with UACC-62 and in the test on M19-MEL was > 100 µM (inactive) each time. For the same compound, the GI50 in the test with M14 was > 100 µM (inactive); in the test with HCT-15 it was above 100 µM; in the test on RPMI-8226 it was > 100 µM (inactive).
For `O=C(CC(=O)Nc1ccccc1Cl)NNC(Sc1ccccc1)c1cc(/N=N/c2ccc(Br)cc2)ccc1O` (stereo unspecified), the GI50 in the test on HL-60 was 0.315 µM (active); in the test on OVCAR-5 it was 3.01 µM (inactive); with SNB-19, 4.06 µM (inactive); in the test with KM12, 1.35 µM (inactive); with SF-539, 1.45 µM (inactive); with NCI-H23 it was 1.85 µM (inactive). For the same compound, the GI50 with Malme-3M is 2.12 µM (inactive); in the test on NCI-H522, 4.07 µM (inactive); in the test with SK-MEL-5 it was 1.07 µM (active); with K562, 2.31 µM (inactive); in the test on HCC 2998, 2.81 µM (inactive); with OVCAR-3, 0.404 µM (active). Further, the GI50 was 1.17 µM (inactive) with UACC-62; 2.28 µM (inactive) in the test with DU-145; 0.785 µM (active) in the test with M14; 2.07 µM (inactive) in the test with HOP-92; 0.679 µM in the test with HCT-15; 2.22 µM (inactive) with MDA-MB-231. In addition, the GI50 in the test on RPMI-8226 was 1.23 µM (inactive).
